Experimental data taken from ChEMBL document CHEMBL5523762, “Discovery of Potent and Selective G9a Degraders for the Treatment of Pancreatic Cancer” (J Med Chem, 2024).
The source made the active and inactive calls. No cut-off for these calls is given here.

What was measured:
PANC-1 [1] = assay: Induction of apoptosis in human PANC-1 cells measured after 24 hrs by Annexin V-FITC/PI staining based flow cytometry analysis; assay type: functional, cell-based; settings: dose 5-12.5 µM
KP-4 [2] = assay: Inhibition of colony formation in human KP-4 cells at 5 to 10 uM in presence of MRTX1133 measured after 10 to 14 days by crystal violet staining based analysis; assay type: functional, cell-based; settings: dose 5-10 µM, time 10-14 day
ASPC1 [3] = assay: Sensitization of human ASPC1 cells to MRTX1133 assessed as upregulation of cleaved PARP level at 10 uM incubated for 24 hrs in presence of 1 uM MRTX1133 by Western blot analysis; assay type: functional, cell-based
Panc 02.03 [4] = assay: Synergistic antiproliferative activity against human Panc 02.03 cells assessed as combination index for ED90 upto 20 uM incubated for 72 hrs in presence of MRTX1133; assay type: functional
HPAF-II [5] = assay: Antiproliferative activity against human HPAF-II cells assessed as inhibition of cell growth measured after 72 hrs by SRB assay; assay type: functional, cell-based
PANC-1 [6] = assay: Effect on GLP mRNA expression at transcriptional level in human PANC-1 cells at 0.1 to 10 uM by RT-qPCR analysis; assay type: functional, cell-based; settings: dose 0.1-10 µM
HPAF-II [7] = assay: Synergistic antiproliferative activity against human HPAF-II cells assessed as combination index upto 20 uM incubated for 72 hrs in presence of MRTX1133; assay type: functional
Panc1005 = assay: Synergistic antiproliferative activity against human Panc1005 cells assessed as combination index for ED90 upto 20 uM incubated for 72 hrs in presence of MRTX1133; assay type: functional
[8] = AUC (0 to t) in male ICR mouse at 20 mg/kg, ip measured upto 24 hrs by LC-MS/MS analysis; assay type: ADME, organism-based; settings: in vivo
[9] = molecular target: T1, Histone-lysine N-methyltransferase EHMT2 (Homo sapiens) (UniProt Q96KQ7); assay: Inhibition of N-terminal GST tagged human recombinant G9a (785 to 1210 residues) expressed in Escherichia coli using H3(1 to 21)K9me1 and SAM as substrates incubated for 1 hr by HTRF assay
T1 sequence (whole entry): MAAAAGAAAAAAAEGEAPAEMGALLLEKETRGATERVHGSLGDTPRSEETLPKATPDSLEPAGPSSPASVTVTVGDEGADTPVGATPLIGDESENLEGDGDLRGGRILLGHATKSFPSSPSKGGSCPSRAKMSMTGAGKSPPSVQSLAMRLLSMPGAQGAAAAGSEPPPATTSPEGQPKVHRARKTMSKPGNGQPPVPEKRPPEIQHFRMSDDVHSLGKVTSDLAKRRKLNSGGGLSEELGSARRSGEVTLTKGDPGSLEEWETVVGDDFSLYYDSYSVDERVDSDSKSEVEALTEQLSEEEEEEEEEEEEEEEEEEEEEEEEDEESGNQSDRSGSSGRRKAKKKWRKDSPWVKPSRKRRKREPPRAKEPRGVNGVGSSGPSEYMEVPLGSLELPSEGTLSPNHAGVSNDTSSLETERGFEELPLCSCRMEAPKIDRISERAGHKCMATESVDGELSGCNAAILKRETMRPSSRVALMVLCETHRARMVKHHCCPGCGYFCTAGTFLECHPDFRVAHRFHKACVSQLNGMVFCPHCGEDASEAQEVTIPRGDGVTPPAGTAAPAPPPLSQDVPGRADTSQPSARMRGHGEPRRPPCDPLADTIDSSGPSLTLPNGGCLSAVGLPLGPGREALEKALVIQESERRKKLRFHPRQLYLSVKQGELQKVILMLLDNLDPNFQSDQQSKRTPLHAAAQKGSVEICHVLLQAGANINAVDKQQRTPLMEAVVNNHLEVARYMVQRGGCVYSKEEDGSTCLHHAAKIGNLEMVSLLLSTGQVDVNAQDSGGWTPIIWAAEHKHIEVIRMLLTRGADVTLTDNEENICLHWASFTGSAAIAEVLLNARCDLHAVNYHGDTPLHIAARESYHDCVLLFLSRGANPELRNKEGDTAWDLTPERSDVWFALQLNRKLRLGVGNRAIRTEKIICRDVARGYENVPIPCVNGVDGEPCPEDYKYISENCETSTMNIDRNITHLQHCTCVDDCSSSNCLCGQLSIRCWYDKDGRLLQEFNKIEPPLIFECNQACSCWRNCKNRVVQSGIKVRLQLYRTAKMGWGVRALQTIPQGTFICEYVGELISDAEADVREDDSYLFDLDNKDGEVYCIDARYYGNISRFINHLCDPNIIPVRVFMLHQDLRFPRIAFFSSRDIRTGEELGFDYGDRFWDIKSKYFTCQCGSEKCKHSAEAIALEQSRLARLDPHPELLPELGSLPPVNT

[10] = Bioavailability in male ICR mouse at 20 mg/kg, ip measured upto 24 hrs by LC-MS/MS analysis; assay type: ADME, organism-based; settings: in vivo
[11] = molecular target: Protein cereblon/Histone-lysine N-methyltransferase EHMT1 (Homo sapiens) (UniProt Q9H9B1+Q96SW2); assay: PROTAC activity at CRBN/GLP in human PANC-1 cells assessed as downregulation of GLP protein level at 1 uM measured after 8 hrs by quantitative proteomics analysis; assay type: cell-based
Protein cereblon/Histone-lysine N-methyltransferase EHMT1 (Homo sapiens), sequence (Q96SW2 whole entry, looked up): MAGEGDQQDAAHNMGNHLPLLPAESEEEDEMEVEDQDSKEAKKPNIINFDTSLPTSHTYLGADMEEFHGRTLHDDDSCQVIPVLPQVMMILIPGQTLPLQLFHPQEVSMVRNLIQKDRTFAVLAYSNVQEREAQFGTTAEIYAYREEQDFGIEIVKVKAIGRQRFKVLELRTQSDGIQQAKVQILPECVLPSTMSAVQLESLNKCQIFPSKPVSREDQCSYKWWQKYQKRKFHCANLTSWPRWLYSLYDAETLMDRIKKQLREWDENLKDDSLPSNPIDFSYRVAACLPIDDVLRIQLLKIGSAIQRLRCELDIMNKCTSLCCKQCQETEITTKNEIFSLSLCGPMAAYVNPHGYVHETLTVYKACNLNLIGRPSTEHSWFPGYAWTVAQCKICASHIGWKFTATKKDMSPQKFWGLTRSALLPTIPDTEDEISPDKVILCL
Protein cereblon/Histone-lysine N-methyltransferase EHMT1 (Homo sapiens), sequence (Q9H9B1 whole entry, looked up): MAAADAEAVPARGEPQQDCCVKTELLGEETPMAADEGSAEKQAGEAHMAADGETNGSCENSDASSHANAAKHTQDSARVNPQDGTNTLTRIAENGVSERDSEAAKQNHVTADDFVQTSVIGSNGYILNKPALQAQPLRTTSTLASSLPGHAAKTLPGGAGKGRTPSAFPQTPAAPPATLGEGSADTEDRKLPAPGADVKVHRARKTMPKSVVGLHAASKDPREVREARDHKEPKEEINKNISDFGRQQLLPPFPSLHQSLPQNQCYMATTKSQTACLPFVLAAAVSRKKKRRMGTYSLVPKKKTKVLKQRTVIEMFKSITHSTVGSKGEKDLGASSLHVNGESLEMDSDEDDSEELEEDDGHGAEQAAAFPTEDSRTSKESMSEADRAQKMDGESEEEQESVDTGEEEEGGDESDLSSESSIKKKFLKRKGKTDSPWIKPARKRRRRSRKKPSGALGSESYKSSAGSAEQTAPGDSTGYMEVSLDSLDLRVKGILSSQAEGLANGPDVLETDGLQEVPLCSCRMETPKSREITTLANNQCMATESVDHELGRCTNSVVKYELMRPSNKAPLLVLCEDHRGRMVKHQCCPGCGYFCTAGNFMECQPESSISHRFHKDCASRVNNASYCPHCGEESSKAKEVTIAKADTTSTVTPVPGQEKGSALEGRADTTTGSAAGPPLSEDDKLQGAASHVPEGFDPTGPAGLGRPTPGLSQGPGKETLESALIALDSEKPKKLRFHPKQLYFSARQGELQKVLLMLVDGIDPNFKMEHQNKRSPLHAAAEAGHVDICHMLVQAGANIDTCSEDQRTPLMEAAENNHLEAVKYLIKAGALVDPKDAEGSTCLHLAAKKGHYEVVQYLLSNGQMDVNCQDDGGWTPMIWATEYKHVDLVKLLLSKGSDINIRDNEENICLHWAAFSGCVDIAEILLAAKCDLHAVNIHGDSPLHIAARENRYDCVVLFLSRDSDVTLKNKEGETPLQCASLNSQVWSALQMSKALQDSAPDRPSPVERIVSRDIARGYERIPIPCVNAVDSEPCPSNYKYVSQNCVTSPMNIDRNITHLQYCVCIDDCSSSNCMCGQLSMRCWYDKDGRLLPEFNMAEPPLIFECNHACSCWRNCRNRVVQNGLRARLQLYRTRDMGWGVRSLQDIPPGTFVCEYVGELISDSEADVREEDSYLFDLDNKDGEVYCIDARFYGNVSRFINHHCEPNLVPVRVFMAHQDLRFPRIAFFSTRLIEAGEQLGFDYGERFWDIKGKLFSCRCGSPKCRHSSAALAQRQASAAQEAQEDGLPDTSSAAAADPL

ASPC1 [12] = assay: Synergistic antiproliferative activity against human ASPC1 cells assessed as combination index upto 20 uM incubated for 72 hrs in presence of MRTX1133; assay type: functional
PANC-1 [13] = assay: Effect on H3K23me3 level in human PANC-1 cells at 0.04 to 10 uM measured after 24 hrs by Western blot analysis; assay type: functional, cell-based; settings: dose 0.04-10 µM
PANC-1 [14] = assay: Effect on GSPT1 level in human PANC-1 cells at 0.008 to 10 uM measured after 8 hrs by western blot analysis; assay type: functional, cell-based; settings: dose 0.008-10 µM
SW1990 = assay: Antiproliferative activity against human SW1990 cells assessed as inhibition of cell growth measured after 72 hrs by SRB assay; assay type: functional, cell-based
Panc 02.03 [15] = assay: Synergistic antiproliferative activity against human Panc 02.03 cells assessed as combination index upto 20 uM incubated for 72 hrs in presence of MRTX1133; assay type: functional
HPAF-II [16] = assay: Synergistic antiproliferative activity against human HPAF-II cells assessed as combination index for ED90 upto 20 uM incubated for 72 hrs in presence of MRTX1133; assay type: functional
[17] = molecular target: Protein cereblon/Histone-lysine N-methyltransferase EHMT2 (Homo sapiens, UniProt Q96KQ7+Q96SW2); assay: PROTAC activity at CRBN/G9a in human PANC-1 cells assessed as induction of G9a degradation at 1 uM pretreated with MLN4924 for 2 hrs followed by compound addition and measured after 8 hrs by Western blot analysis; assay type: cell-based
Protein cereblon/Histone-lysine N-methyltransferase EHMT2, sequence (Q96SW2 whole entry partner, one chain of several): as the sequence (Q96SW2 whole entry, looked up) above

Panc 04.03 = assay: Antiproliferative activity against human Panc 04.03 cells assessed as inhibition of cell growth measured after 72 hrs by SRB assay; assay type: functional, cell-based
PANC-1 [18] = assay: Downregulation of H3K9me2 expression in human PANC-1 cells at 0.1 to 10 uM measured after 24 hrs by Western blot analysis; assay type: functional, cell-based; settings: dose 0.1-10 µM
KP-4 [19] = assay: Induction of apoptosis in human KP-4 cells at 10 uM incubated for 24 hrs in presence of 5 uM MRTX1133 by Annexin V-FITC/PI staining based flow cytometry analysis; assay type: functional, cell-based

## COc1cc2c(NC3CCN(CCCC(=O)NCCCCCCCCNc4cccc5c4C(=O)N(C4CCC(=O)NC4=O)C5=O)CC3)nc(C3CCCCC3)nc2cc1OCCCN1CCCC1 (configuration not stated)
PANC-1 [1]
  Activity: Dose-Dependent Effect
KP-4 [2]
  inhibition: Active
ASPC1 [3]
  Activity: Active
Panc 02.03 [4]
  CI: <0.4
HPAF-II [5]
  Activity: Active
PANC-1 [6]
  Activity: inactive
HPAF-II [7]
  CI: <0.8
Panc1005
  CI: <0.4
[8]
  AUC(0-t) at 24 h: 6150 ng·h/mL
[9]
  inhibition: Active
[10]
  bioavailability: 40.6%
[11]
  Activity: inactive
ASPC1 [12]
  CI: <0.8
PANC-1 [13]
  Activity: inactive
PANC-1 [14]
  Activity: inactive
SW1990
  Activity: Active
Panc 02.03 [15]
  CI: <0.8
HPAF-II [16]
  CI: <0.4
[17]
  Activity: inactive
Panc 04.03
  Activity: Active
PANC-1 [18]
  Activity: Active
KP-4 [19]
  Activity: Active
